For this assay, the system named is B16-F10 melanoma cells. The assay is described as follows: B16-F10 melanoma tumor growth in wild type and ACE 10/10 mice with co-administered drug. Type of assay: in vivo, mouse. Particulars: intradermal B16-F10 melanoma. On the procedure: Quantitation of B16-F10 tumor growth in wild type and ACE 10/10 mice was also conducted between groups in which the ACE inhibitor captopril was also administered. […] This experiment establishes that it is the presence of ACE in the ACE 10/10 mice that is important in the observed effects on tumor growth compared to wild-type mice.
B16-F10 tumor protocol. B16-F10 melanoma cell line was obtained from ATCC (American Type Culture Collection, Manassas, Va., USA). Cells were cultured in DMEM supplemented with 4 mM L-glutamine, 4.5 g/l glucose, 10% FBS, and antibiotics under humidified air with 5% CO2 at 37° C. […] The supernatant was removed, cell pellets were resuspended in PBS, and the cell number was counted.
Mice aged 8 to 12 weeks received exponentially growing cells (1×10^6) interdermally into the dorsal skin using a disposable 27-gauge needle under anesthesia (28 mg/kg avertin, intraperitoneally). Measurements of tumor size (longest and shortest diameters) were done using calipers at the 11th and 14th day, and body weight was measured at the day of inoculation (Day 0) and at harvesting (the 14th day), respectively. Tumor volume was calculated by the formula for a prolate spheroid according to the equation (L [longest diameter] H S2 [shortest diameter] H 0.52)=tumor volume.

This is an account of results in patent US20090217402A1, “METHODS AND COMPOSITIONS FOR MODULATING THE ACTIVITY OF PEPTIDASES IN MACROPHAGE AND MACROPHAGE-LIKE CELLS” (Emory University, priority 2005, published 2009).

Entries after “also recorded” stand apart in the source; their conditions may differ.

Take `CCCCc1nc(Cl)c(CO)n1Cc1ccc(-c2ccccc2-c2nn[nH]n2)cc1` [losartan]: the “B16-F10 tumor growth (resistance of ACE 10/10 mice to melanoma)” value is “does not inhibit the ability of the ACE 10/10 mice to resist melanoma; also recorded: did not inhibit the ability of the ACE 10/10 mice to resist melanoma growth”.
As for `C[C@H](CS)C(=O)N1CCC[C@H]1C(=O)O` [captopril], the “B16-F10 tumor growth (resistance of ACE 10/10 mice to melanoma)” value is “comparable to wild-type mice in terms of susceptibility to tumor growth”.
